20 compounds from US20060194837A1, “Tetrahydroisoquinoline compounds” (priority 2004, published 2006) can be followed below.

The target of experiment [1] is T1, human H3 receptor (Homo sapiens, UniProt Q9Y5N1).
T1 construct: expressed in transfected cells
Kind of experiment: H3 receptor binding (N-[3H]-α-methylhistamine displacement). The note with it: membranes of SK-N-MC cells expressing cloned human H3 receptor, 0.8 nM N-[3H]-α-methylhistamine, 60 min at 25° C.

For experiment [2], the target named is T2, Rat SERT (Rattus norvegicus, UniProt P31652).
T2 construct: A rat brain without cerebellum (Zivic Laboratories, Inc.—Pittsburgh, Pa.) was homogenized; tissue Zivic Laboratories, Inc; host or cells: rat brain without cerebellum, membranes
Kind of experiment: Rat brain SERT binding ([3H]-citalopram displacement). The settings on record: rat brain membranes without cerebellum, 0.6 nM [3H]-citalopram, 60 min at 25° C.; read-out: Rat SERT Ki. The procedure:
The supernatant was removed and re-centrifuged at 15,000 rpm for 30 min. […] Membranes were incubated with 0.6 nM [^3H]-Citalopram plus/minus test compounds for 60 min at 25° C. and harvested by rapid filtration over GF/C glass fiber filters (pretreated with 0.3% polyethylenimine) followed by four washes with ice-cold buffer.

Experiment [3] deals with T3, human SERT (Homo sapiens, UniProt P31645).
T3 construct: expressed in transfected cells; host or cells: HEK293 membranes
Kind of experiment: Human SERT binding (3H-citalopram displacement). The note with it: HEK293 membranes expressing human SERT, rt 1 h. The procedure:
Homogenized HEK293 (Human Embryonic Kidney) membranes expressing the human SERT were incubated with ^3H-citalopram (SERT) at rt for 1 h in 50 mM Tris, 120 mM NaCl, 5 mM KCl (pH 7.4). […] The membranes were washed and the radioactivity was counted as above.

T3 sequence (P31645 whole entry): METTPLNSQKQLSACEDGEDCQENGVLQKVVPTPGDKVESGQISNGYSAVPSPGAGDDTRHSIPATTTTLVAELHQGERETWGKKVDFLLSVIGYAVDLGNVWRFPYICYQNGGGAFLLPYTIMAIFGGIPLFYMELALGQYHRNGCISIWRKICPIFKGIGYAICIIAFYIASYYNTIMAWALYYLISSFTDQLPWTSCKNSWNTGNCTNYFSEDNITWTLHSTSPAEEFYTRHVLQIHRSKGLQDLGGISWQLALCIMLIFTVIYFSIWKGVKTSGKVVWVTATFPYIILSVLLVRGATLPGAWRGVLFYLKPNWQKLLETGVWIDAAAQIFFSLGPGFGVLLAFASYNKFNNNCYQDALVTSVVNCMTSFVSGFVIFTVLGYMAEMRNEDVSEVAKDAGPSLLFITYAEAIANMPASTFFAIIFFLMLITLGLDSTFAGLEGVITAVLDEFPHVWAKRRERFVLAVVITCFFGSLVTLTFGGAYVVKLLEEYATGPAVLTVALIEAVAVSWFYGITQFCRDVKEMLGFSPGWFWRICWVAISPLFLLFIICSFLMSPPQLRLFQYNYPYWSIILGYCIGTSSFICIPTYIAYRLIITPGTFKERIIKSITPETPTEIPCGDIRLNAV
T1 sequence (Q9Y5N1 whole entry): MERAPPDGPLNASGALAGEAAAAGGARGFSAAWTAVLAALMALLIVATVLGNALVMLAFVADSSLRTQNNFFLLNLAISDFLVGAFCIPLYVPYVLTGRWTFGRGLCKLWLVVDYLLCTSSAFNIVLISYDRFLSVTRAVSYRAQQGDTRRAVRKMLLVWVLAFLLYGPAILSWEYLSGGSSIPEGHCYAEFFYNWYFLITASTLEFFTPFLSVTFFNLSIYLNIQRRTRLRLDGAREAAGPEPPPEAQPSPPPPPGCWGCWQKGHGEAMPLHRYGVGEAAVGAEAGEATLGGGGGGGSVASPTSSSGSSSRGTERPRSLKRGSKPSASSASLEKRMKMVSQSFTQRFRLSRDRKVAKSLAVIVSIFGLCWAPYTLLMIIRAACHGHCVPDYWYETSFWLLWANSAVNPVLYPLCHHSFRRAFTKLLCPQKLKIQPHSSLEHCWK
T2 sequence (P31652 whole entry): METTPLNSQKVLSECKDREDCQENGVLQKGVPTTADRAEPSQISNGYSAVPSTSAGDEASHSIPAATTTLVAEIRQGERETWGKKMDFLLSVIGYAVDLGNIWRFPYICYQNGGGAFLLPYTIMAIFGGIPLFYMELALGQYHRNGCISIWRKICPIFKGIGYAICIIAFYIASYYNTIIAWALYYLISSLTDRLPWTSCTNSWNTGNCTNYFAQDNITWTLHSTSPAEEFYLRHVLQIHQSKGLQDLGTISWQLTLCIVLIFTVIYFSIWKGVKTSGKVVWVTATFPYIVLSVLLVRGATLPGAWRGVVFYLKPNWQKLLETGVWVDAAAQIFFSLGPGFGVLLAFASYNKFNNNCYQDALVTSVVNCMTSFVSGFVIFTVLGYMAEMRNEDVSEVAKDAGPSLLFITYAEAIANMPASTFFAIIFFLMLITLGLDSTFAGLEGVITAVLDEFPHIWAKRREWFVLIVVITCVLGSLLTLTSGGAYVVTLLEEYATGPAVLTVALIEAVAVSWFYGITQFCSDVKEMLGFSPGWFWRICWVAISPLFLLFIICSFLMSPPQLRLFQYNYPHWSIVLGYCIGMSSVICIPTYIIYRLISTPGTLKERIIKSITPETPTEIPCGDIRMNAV

As for `COc1ccc(C2CN(C)Cc3cc(OCC4CCN(CC(C)C)CC4)ccc32)cc1` (stereo not drawn) [Example 110, 7-(1-Isobutyl-piperidin-4-ylmethoxy)-4-(4-methoxy-phenyl)-2-methyl-1,2,3,4-tetrahydro-isoquinoline], the Ki (in general, the dissociation constant of the complex between target and ligand, obtained from inhibition or displacement) in experiment [1] amounted to 5 nM; in experiment [2] it was 4 nM; in experiment [3], 5 nM.
`CCCN1CCC(COc2ccc3c(c2)CN(C)CC3c2ccc(OC)c(F)c2)CC1` (stereo not drawn) [Example 112, 4-(3-Fluoro-4-methoxy-phenyl)-2-methyl-7-(1-propyl-piperidin-4-ylmethoxy)-1,2,3,4-tetrahydro-isoquinoline]: the Ki in experiment [1] amounted to 9 nM; in experiment [2], 5 nM; in experiment [3], 6 nM.
Regarding `COc1ccc(C2CN(C)Cc3cc(OCC4CCN(CCF)CC4)ccc32)cc1` (stereo not drawn) [Example 116, 7-[1-(2-Fluoro-ethyl)-piperidin-4-ylmethoxy]-4-(4-methoxy-phenyl)-2-methyl-1,2,3,4-tetrahydro-isoquinoline], the Ki in experiment [1] came out at 8 nM; in experiment [2] it was 6 nM; in experiment [3], 7 nM.
In the same order, the values of `COc1ccc(C2CN(C)Cc3cc(OC4CCN(C(C)C)CC4)ccc32)cc1` (stereo not drawn) [Example 117, 7-(1-Isopropyl-piperidin-4-yloxy)-4-(4-methoxy-phenyl)-2-methyl-1,2,3,4-tetrahydro-isoquinoline] are 1 nM, 9 nM and 10 nM.
In the same order, the values of `CSc1ccc(C2CN(C)Cc3cc(OC4CCN(C(C)C)CC4)ccc32)cc1` (stereo not drawn) [Example 118, 7-(1-Isopropyl-piperidin-4-yloxy)-2-methyl-4-(4-methylsulfanyl-phenyl)-1,2,3,4-tetrahydro-isoquinoline] are 1 nM, 8 nM and 4 nM.
Regarding `COc1ccc(C2CN(C)Cc3cc(OC4CCN(C5CCOCC5)CC4)ccc32)cc1` (stereo not drawn) [Example 121, 4-(4-Methoxy-phenyl)-2-methyl-7-[1-(tetrahydro-pyran-4-yl)-piperidin-4-yloxy]-1,2,3,4-tetrahydro-isoquinoline], the inhibition constant (Ki) came to 2 nM in experiment [1], 10 nM in experiment [2] and 6 nM in experiment [3].
As to `CN1Cc2cc(OCCCN3CCC(F)CC3)ccc2C(c2ccccc2)C1` (stereo not drawn) [Example 124, 7-[3-(4-Fluoro-piperidin-1-yl)-propoxy]-2-methyl-4-phenyl-1,2,3,4-tetrahydro-isoquinoline], the Ki was found to be 3 nM in experiment [1], 13 nM in experiment [2] and 56 nM in experiment [3].
In the same order, the values of `Cc1ccc(C2CN(C)Cc3cc(OCCCN4CCC(F)CC4)ccc32)cc1` (stereo not drawn) [Example 126, 7-[3-(4-Fluoro-piperidin-1-yl)-propoxy]-2-methyl-4-p-tolyl-1,2,3,4-tetrahydro-isoquinoline] are 8 nM, 3 nM and 15 nM.
On to `COc1ccc(C2CN(C)Cc3cc(OCCCN4CCC(F)(F)C4)ccc32)cc1` (stereo not drawn) [Example 129, 7-[3-(3,3-Difluoro-pyrrolidin-1-yl)-propoxy]-4-(4-methoxy-phenyl)-2-methyl-1,2,3,4-tetrahydro-isoquinoline], for which the Ki is 14 nM in experiment [1], 7 nM in experiment [2] and 5 nM in experiment [3].
Taken in the same sequence, the figures for `CN1Cc2cc(OCCCN3CCC(F)CC3)ccc2C(c2ccc(N3CCOCC3)cc2)C1` (stereo not drawn) [Example 134, 7-[3-(4-Fluoro-piperidin-1-yl)-propoxy]-2-methyl-4-(4-morpholin-4-yl-phenyl)-1,2,3,4-tetrahydro-isoquinoline] were 2 nM, 28 nM and 30 nM.
In the same order, the values of `C[C@H]1COCCN1CCCOc1ccc2c(c1)CN(C)CC2c1ccc(C#N)cc1` (stereo partly drawn) [Example 135, 4-{2-Methyl-7-[3-(3S-methyl-morpholin-4-yl)-propoxy]-1,2,3,4-tetrahydro-isoquinolin-4-yl}-benzonitrile] are 2 nM, 27 nM and 15 nM.
For the compound `CN1Cc2cc(OCCCN3CCC(F)CC3)ccc2C(c2ccc(C#N)cc2)C1` (stereo not drawn) [Example 136, 4-{7-[3-(4-Fluoro-piperidin-1-yl)-propoxy]-2-methyl-1,2,3,4-tetrahydro-isoquinolin-4-yl}-benzonitrile], the values for the Ki in experiment [1], in experiment [2] and in experiment [3] were 4 nM, 9 nM and 20 nM, respectively.
As for `CCOc1ccc(C2CN(C)Cc3cc(OCCCN4CCC(F)CC4)ccc32)cc1` (stereo not drawn) [Example 145, 4-(4-Ethoxy-phenyl)-7-[3-(4-fluoro-piperidin-1-yl)-propoxy]-2-methyl-1,2,3,4-tetrahydro-isoquinoline], the Ki in experiment [1] was 5 nM; in experiment [2], 3 nM; in experiment [3], 5 nM.
Regarding `COc1ccc(C2CN(C)Cc3cc(OC4CCNCC4)ccc32)cc1` (stereo not drawn) [Example 148, 4-(4-Methoxy-phenyl)-2-methyl-7-(piperidin-4-yloxy)-1,2,3,4-tetrahydro-isoquinoline], the Ki in experiment [1] amounted to 262 nM; in experiment [2], 3 nM; in experiment [3], 5 nM.
Consider `COc1ccc(C2CN(C)Cc3cc(OC4CCN(CCF)CC4)ccc32)cc1` (stereo not drawn) [Example 152, 7-[1-(2-Fluoro-ethyl)-piperidin-4-yloxy]-4-(4-methoxy-phenyl)-2-methyl-1,2,3,4-tetrahydro-isoquinoline], for which the Ki in experiment [1] is 5 nM; in experiment [2], 6 nM; in experiment [3], 11 nM.
In the same order, the values of `CSc1ccc(C2CN(C)Cc3cc(OC4CCN(CCF)CC4)ccc32)cc1` (stereo not drawn) [Example 179, 7-[1-(2-Fluoro-ethyl)-piperidin-4-yloxy]-2-methyl-4-(4-methylsulfanyl-phenyl)-1,2,3,4-tetrahydro-isoquinoline] are 5 nM, 3 nM and 4 nM.
In the same order, the values of `CN1Cc2cc(OCCCN3CCC(F)CC3)ccc2C(c2ccc(Sc3ncc[nH]3)nc2)C1` (stereo not drawn) [Example 195, 7-[3-(4-Fluoro-piperidin-1-yl)-propoxy]-4-[6-(1H-imidazol-2-ylsulfanyl)-pyridin-3-yl]-2-methyl-1,2,3,4-tetrahydro-isoquinoline] are 3 nM, 8 nM and 34 nM.
Taken in the same sequence, the figures for `CCN1CCN(CCCOc2ccc3c(c2)CN(C)CC3c2ccc(OC)cc2)CC1` (stereo not drawn) [Example 198, 7-[3-(4-Ethyl-piperazin-1-yl)-propoxy]-4-(4-methoxy-phenyl)-2-methyl-1,2,3,4-tetrahydro-isoquinoline] were 10 nM, 2 nM and 2 nM.
On to `COc1ccc(C2CN(C)Cc3cc(OCCCN4CCN(C(C)C)CC4)ccc32)cc1` (stereo not drawn) [Example 199, 7-[3-(4-Isopropyl-piperazin-1-yl)-propoxy]-4-(4-methoxy-phenyl)-2-methyl-1,2,3,4-tetrahydro-isoquinoline], for which the Ki in experiment [1] came to 8 nM; in experiment [2], 2 nM; in experiment [3], 2 nM.
As for `COc1ccc(C2CN(C)Cc3cc(OCCCN4CCN(c5ccncc5)CC4)ccc32)cc1` (stereo not drawn) [Example 204, 4-(4-Methoxy-phenyl)-2-methyl-7-[3-(4-pyridin-4-yl-piperazin-1-yl)-propoxy]-1,2,3,4-tetrahydro-isoquinoline], the inhibition constant Ki in experiment [1] was 2 nM; in experiment [2] it was 10 nM; in experiment [3] it was 5 nM.
